Experimental data reported in patent US4048299A, “Anticaries confectionaries and oral health products” (William Wrigley, Jr. Co., priority 1970, dated 1977).

Tests used:
[1] = In vivo caries evaluation, Osborne-Mendel strain 2 rat; parameters: species or system rat (Osborne-Mendel strain 2); Caries Score, Mean Incidence / Caries Score, Mean Extent: scale not given here; details: for Caries Score, Mean Incidence / Caries Score, Mean Extent: 1 percent in diet; for Caries Extent Reduction, statistical evaluation / Caries Incidence Reduction, statistical evaluation: Student's test, 95 percent confidence limit
Source text: (§1) Standard laboratory techniques were used to complie the data presented. In each case the aldehyde was incorporated into each specimen's food in a one percent, by weight, quantity, over a period of several weeks. In all cases, caries reduction was noted.
(§2) The aldehydes tested in vivo were pyruvaldehyde, d,1-glyceraldehyde, crystalline dimer, glycolaldehyde, octanaldehyde, nonanaldehyde, decanaldehyde, undecylenic aldehyde, and lauric aldehyde. The polyaldehydes tested were dialdehyde starch, dialdehyde starch 50 percent oxidized, dialdehyde starch 90 percent oxidized, and dialdehyde galactomannan gum.
(§3) ^(a) Agents were incorporated in the diet at a 1 percent level.

[2] = tested on: Lactobacillus casei ATCC 4646; assay: Growth inhibition by aldehydes in product vehicles, pour-plate technique; format: cell-based; details: in tooth powder (aqueous extract), 1 to 5 percent aldehyde
Experimental: (§4) Other in vitro evaluations utilized a broth tube analysis of representative anticaries aldehydes incorporated in the vehicles of this invention against cultures of acid producing microorganisms normally present in the mouth. Standard laboratory procedures were utilized throughout to evaluate the acid production inhibition and growth inhibition over the incubation time of up to 24 hours.
(§5) (b)Measured by pour-plate technique.
(§6) In formulating Tables XIII - XIX representative aldehydes having anticaries activity were selected from those tested as summarized in Tables I - XII and incorporated in seven representative types of products. The products included dextrose and sucrose syrups, obtained commercially in food grades, and compressed candy, hard candy, mouthwash, toothpaste and toothpowder. The five latter products also employed food grade and reagent grade ingredients. These products were formulated by well-known and representative recipes for each type of product. The products were formed in batches of approximately 1 pound or 1 liter and contained all their normal constitutents. Aliquots of each products were blended with one of each of the representative aldehydes selected except in the case of hard candy.
(§7) Aliquots of the aldehyde incorporating sugar syrups, confectioneries, and mouthwash formulations were added directly to assay flasks and mixed or dissolved as required. Aqueous extracts of the aldehyde incorporated in toothpaste and toothpowder were prepared and aliquots of the filtrate were added to the assay flasks.
(§8) The assay flasks contained the necessary components for a normal growth response from the organisms employed, Lactobacillus casei ATCC 4646, originally a human oral isolate, Streptococcus spp. K1-R, human caries isolate, and a mixed oral microbial population obtained fresh from saliva on the morning prior to the initiation of each assay incubation period. The assay flask medium was dissolved in distilled water in which was added an equal volume of filter sterilized human saliva to yield a 50 percent saliva-medium combination. The medium contained all normal ingredients such as yeast extract, proteose peptone number 3 (a proprietary formula of Difco Laboratories, Detroit, Michigan) monopotassium phosphate, Tween 80 (polyoxethylene sorbitan monoleate) and water, except a carbon source. This was supplied by the aliquot of the sucrose syrup, dextrose syrup, sucrose in the compressed candy tablet and sucrose in the hard candy product. In addition, an aliquot of sucrose solution concentrate was added to the assay flask as a carbon source for evaluation of mouthwash, toothpaste, and toothpowder vehicles.
(§9) The lower aldehydes such as glycolaldehyde, crystalline dimer; pyruvaldehyde, aqueous syrup; d,1-glyceraldehyde solution and crystalline dimer; and glutaraldehyde, employed as a 50 percent aqueous solution, are water soluble and were employed directly either as powders or aqueous solutions. The C8 to C12, longer chain aliphatic aldehydes, of which decyl and dodecyl (lauric) were selected as representative, are oil soluble and are prepared and added to the products as emulsions with four parts of Tween 20, polyoxethylene sorbitan monolaurate. The aldehyde concentrations in the products were randomly chosen between 1 to 5 percent by weight. Limits for the concentrations were selected to coincide with the data presented in Tables I - XII in order to verify that the anticaries activity of the aldehydes in the product vehicles tested was equivalent to the activity previously established for the aldehydes alone.

[3] = tested on: Mixed human oral microorganisms; assay: as above; format: cell-based; details: in tooth powder (aqueous extract), 1 to 5 percent aldehyde
Experimental: as §4, §5, §6, §7, §8, §9

Streptococcus spp. KI-R [4] = assay: as above; format: cell-based; details: in tooth powder (aqueous extract), 1 to 5 percent aldehyde
Experimental: as §4, §5, §6, §7, §8, §9

[5] = In vivo caries evaluation, laboratory animals (summary); details: one percent level in diet
Source text: as §1, §2

Streptococcus spp. FA-1 = assay: Growth inhibition of oral microorganisms in vitro, pour plates; format: cell-based; details: Table IX; for Bacterial Population, Experimental: control 2 × 10^8 to 5 × 10^8; for Inhibition (growth): pour plates incubated 48 - 72 hours
Experimental: (§10) (a)Determined on freshly grown pure cultures. Pour plates were incubated

L. casei = assay: as above; format: cell-based, Lactobacillus casei; details: Table IX; for Bacterial Population, Experimental: control 8 × 10^8 to 1 × 10^9; for Inhibition (growth): pour plates incubated 48 - 72 hours
Experimental: as §10

[6] = tested on: Lactobacillus casei ATCC 4646; assay: Acid production inhibition by aldehydes in product vehicles, broth-tube technique; format: cell-based; details: in tooth powder (aqueous extract), 1 to 5 percent aldehyde
Experimental: as §4
(§11) (a)Measured by broth-tube technique.
as §6, §7, §8, §9

[7] = tested on: Mixed human oral microorganisms; assay: as above; format: cell-based; details: in tooth powder (aqueous extract), 1 to 5 percent aldehyde
Experimental: as §4, §11, §6, §7, §8, §9

Streptococcus spp. KI-R [8] = assay: as above; format: cell-based; details: in tooth powder (aqueous extract), 1 to 5 percent aldehyde
Experimental: as §4, §11, §6, §7, §8, §9

[9] = tested on: Lactobacillus casei and Streptococcus sp. FA-1; assay: Acid-production inhibition by broth-tube assay, 0.1 percent of compound; format: cell-based; details: for inhibition at 0.1 %: Table X, 0.1 percent of compound, read-out: Activity, Acid-Production Inhibition%; for Activity, Acid-Production Inhibition, %: Table XII, 0.1% of compound
Experimental: ^(a) Activity was measured by broth-tube assay to determine percent
(§12) acid-production inhibition obtained by Lactobacillus casei and
Streptococcus sp. FA-1 in the presence of 0.1 percent of compound.
^(a) Activity was measured by broth-tube assay to determine percent o
as §12
Streptococcus sp. FA-1 in the presence of 0.1% of compound. Symbols

[10] = In vivo caries evaluation, Osborne-Mendel strain 1 rat; parameters: species or system rat (Osborne-Mendel strain 1); Caries Score, Mean Incidence / Caries Score, Mean Extent: scale not given here; details: Table II, 90 days; for Caries Score, Mean Incidence / Caries Score, Mean Extent: 1 percent in diet; for Caries Score, Mean Incidence: RCD control 19.0 (octan-), 14.1 (nonan-), 17.6 (decan-), 22.3 (undecylenic); for Caries Score, Mean Extent: RCD control 49.6 (octan-), 34.3 (nonan-), 46.0 (decan-), 54.6 (undecylenic); for Caries Extent Reduction, statistical evaluation / Caries Incidence Reduction, statistical evaluation: Student's test, 95 percent confidence limit
Source text: as §1, §2, §3

[11] = In vivo caries evaluation, albino hamster; details: Table II, 59 days
Source text: as §1, §2, §3

[12] = Table II, 90 days, L2000 control 17.4
[13] = Table II, 90 days, L2000 control 31.3
[14] = Student's test, 95 percent confidence limit

CCCCCCCCCCCC=O [Lauric aldehyde]
Caries Score, Mean Incidence [1, 12]: 10.0
Caries Score, Mean Extent [1, 13]: 15.6
Caries Extent Reduction, statistical evaluation ([1]; Table II, 90 days): Significant
Caries Incidence Reduction, statistical evaluation ([1]; Table II, 90 days): Significant
Growth Inhibition ([2]; 2 h incubation): 99.5 Per cent
Growth Inhibition ([2]; 5 h incubation): > 99.99 Per cent
Growth Inhibition ([2]; 24 h incubation): 99.99 Per cent
Growth Inhibition ([3]; 2 h incubation): 99.8 Per cent
Growth Inhibition ([3]; 5 h incubation): 99.6 Per cent
Growth Inhibition ([3]; 24 h incubation): N.S.
Growth Inhibition (Streptococcus spp. KI-R [4]; 2 h incubation): 99.2 Per cent
Growth Inhibition (Streptococcus spp. KI-R [4]; 5 h incubation): > 99.99 Per cent
Growth Inhibition (Streptococcus spp. KI-R [4]; 24 h incubation): 100 Per cent
Anticaries effect in laboratory animals [5]: significant anticaries activity
Bacterial Population, Experimental (Streptococcus spp. FA-1): 0
Inhibition (growth) (Streptococcus spp. FA-1): 100%
Bacterial Population, Experimental (L. casei): < 1 × 10^2
Inhibition (growth) (L. casei): > 99.99%
Acid Production Inhibition ([6]; 2 h incubation): 0 Per cent
Acid Production Inhibition ([6]; 5 h incubation): 0 Per cent
Acid Production Inhibition ([6]; 24 h incubation): 93 Per cent
Acid Production Inhibition ([7]; 2 h incubation): 33 Per cent
Acid Production Inhibition ([7]; 5 h incubation): 96 Per cent
Acid Production Inhibition ([7]; 24 h incubation): 0 Per cent
Acid Production Inhibition (Streptococcus spp. KI-R [8]; 2 h incubation): 0 Per cent
Acid Production Inhibition (Streptococcus spp. KI-R [8]; 5 h incubation): 0 Per cent
Acid Production Inhibition (Streptococcus spp. KI-R [8]; 24 h incubation): 0 Per cent
inhibition at 0.1 % [9]: 99 to 100%

CC=CCCCCCCCC=O [Undecylenic aldehyde]
Caries Score, Mean Incidence [10]: 7.4
Caries Score, Mean Extent [10]: 16.4
Caries Extent Reduction, statistical evaluation [10]: Significant
Caries Incidence Reduction, statistical evaluation [10]: Significant
Anticaries effect in laboratory animals [5]: significant anticaries activity
Bacterial Population, Experimental (Streptococcus spp. FA-1): 0
Inhibition (growth) (Streptococcus spp. FA-1): 100%
Bacterial Population, Experimental (L. casei): 1 × 10^2
Inhibition (growth) (L. casei): > 99.99%
inhibition at 0.1 % [9]: 99 to 100%

O=CC(=O)C=O [Mesoxalic dialdehyde]
Activity, Acid-Production Inhibition, % ([9]; confirmation of purity and structure lacking, actual activity could be much higher): + (25 to 74)

CCCCCCCCCCC=O [Undecylic aldehyde]
Bacterial Population, Experimental (Streptococcus spp. FA-1): 2 × 10^3
Inhibition (growth) (Streptococcus spp. FA-1): > 99.99%
Bacterial Population, Experimental (L. casei): 5 × 10^4
Inhibition (growth) (L. casei): > 99.99%
inhibition at 0.1 % [9]: 99 to 100%

OCC1OC(O)C(CO)OC1O (stereo not shown) [Glyceraldehyde, crystalline dimer]
Caries Score, Mean Incidence ([1]; Table I, 91 days, L-2000 control 23.5): 15.0
Caries Score, Mean Extent ([1]; Table I, 91 days, L-2000 control 51.0): 29.4
Caries Extent Reduction, statistical evaluation ([1]; Table I, 91 days): Significant
Caries Incidence Reduction, statistical evaluation ([1]; Table I, 91 days): Significant

O=CCCC=O [Succinic dialdehyde]
Activity, Acid-Production Inhibition, % [9]: ++++ (99 to 100)

O=CCCCC(O)C=O (stereo not shown) [2-Hydroxyadipaldehyde]
Activity, Acid-Production Inhibition, % [9]: + (25 to 74)

CCCCCCCC=O [Octanaldehyde]
Caries Score, Mean Incidence [10]: 9.8
Caries Score, Mean Extent [10]: 20.4
Caries Extent Reduction, statistical evaluation [10]: Significant
Caries Incidence Reduction, statistical evaluation [10]: Significant
Caries Score, Mean Incidence [1, 12]: 2.9
Caries Score, Mean Extent [1, 13]: 4.1
Caries Extent Reduction, statistical evaluation ([1]; Table II, 90 days): Significant
Caries Incidence Reduction, statistical evaluation ([1]; Table II, 90 days): Significant
Anticaries effect in laboratory animals [5]: significant anticaries activity
Bacterial Population, Experimental (Streptococcus spp. FA-1): 9 × 10^3
Inhibition (growth) (Streptococcus spp. FA-1): > 99.99%
Bacterial Population, Experimental (L. casei): 2 × 10^7
Inhibition (growth) (L. casei): 97%
inhibition at 0.1 % [9]: 99 to 100%
Caries Score, Mean Incidence ([11]; 1 percent in diet, L2000 control 39.3): 18.6
Caries Score, Mean Extent ([11]; 1 percent in diet, L2000 control 117.6): 53.8
Caries Extent Reduction, statistical evaluation [11, 14]: Significant
Caries Incidence Reduction, statistical evaluation [11, 14]: Significant

CC(C)=CCCC(C)=CC=O [Citral]
inhibition at 0.1 % [9]: 99 to 100%

O=CC=O [Glyoxal]
Activity, Acid-Production Inhibition, % [9]: ++++ (99 to 100)

CCCCCCCCC=O [Nonanaldehyde]
Caries Score, Mean Incidence [10]: 5.1
Caries Score, Mean Extent [10]: 10.2
Caries Extent Reduction, statistical evaluation [10]: Significant
Caries Incidence Reduction, statistical evaluation [10]: Significant
Anticaries effect in laboratory animals [5]: significant anticaries activity
Bacterial Population, Experimental (Streptococcus spp. FA-1): 0
Inhibition (growth) (Streptococcus spp. FA-1): 100%
Bacterial Population, Experimental (L. casei): 4 × 10^4
Inhibition (growth) (L. casei): > 99.99%
inhibition at 0.1 % [9]: 99 to 100%

CCCCCCCCCC(C)C=O (stereo not shown) [Methylnonylacetaldehyde]
Bacterial Population, Experimental (Streptococcus spp. FA-1): 0
Inhibition (growth) (Streptococcus spp. FA-1): 100%
Bacterial Population, Experimental (L. casei): < 1 × 10^3
Inhibition (growth) (L. casei): > 99.99%
inhibition at 0.1 % [9]: 90 to 98%
